# According to US7314625B2 (priority 2000, dated 2008):
# Tested on: P. aeruginosa PAK strain
# Format: cell-based
row,Substance,reduction of adherence to A549 cells
1,acetyl-QIDPEFK-NH2 (Ac-QIDPEFK-NH2) [scrambled peptide],did not interfere with adherence
2,acetyl-KCTSDQDEQFLPKGCSK-NH2 (Ac-KCTSDQDEQFLPKGCSK-NH2; cysteine pairing not given here) [long pilin peptide],approximately 50%
3,acetyl-DEQFIPK-NH2 (Ac-DEQFIPK-NH2) [core pilin peptide],approximately 50%
